Measured values reported in article PMC5340007 (BMC Cancer, 2017).

What was measured:
[1] = Plasma pharmacokinetics, each drug alone and in combination; conditions: selumetinib + dacarbazine arm
From the text: When more than one maximum occurred, the reported value was assigned to the first occurrence.

[2] = Dose-limiting toxicity and maximum tolerated dose, phase I dose escalation; type: in vivo, human (patients with advanced solid tumors)
From the text: Dose-limiting toxicities (DLTs) in the study were defined as those related to treatment and occurring within the first 28 days of therapy. Hematologic DLTs were defined as afebrile grade 4 neutropenia for >5 days, grade 4 neutropenia associated with fever, or grade 4 thrombocytopenia. Non-hematological DLTs were defined as any ≥ grade 3 adverse event (AE) for >7 days that could not be controlled to grade ≤2 with appropriate treatment.
In part B (dose expansion) of the study, an additional 12 evaluable patients received treatment at the combination MTDs.

[3] = cited from earlier work

Pharmacokinetic parameters administered alone vs in combination [1] | Plasma concentration-time profiles administered alone vs in combination [1] | SMILES | MTD of selumetinib ([2]; in combination with dacarbazine 1000 mg/m^2 every 21 days) [mg BID] | MTD of selumetinib ([2]; in combination with docetaxel 75 mg/m^2 every 21 days) [mg BID] | MTD of selumetinib ([2]; plus docetaxel with ppG-CSF, defined in part A) [mg BID] | recommended phase II dose of selumetinib ([2]; plus docetaxel without ppG-CSF) [mg BID] | MTD of selumetinib ([2]; with docetaxel 75 mg/m^2 without ppG-CSF) [mg BID] | recommended dose for selumetinib monotherapy ([3]; monotherapy) | monotherapy MTD ([3]; selumetinib monotherapy) [mg BID] | AUC(0–8) ([1]; plasma, dosed in combination, selumetinib 75 mg (N = 15), geometric mean (% CV))
similar | similar | CN(C)/N=N/c1[nH]cnc1C(N)=O [Dacarbazine] |  |  |  |  |  |  |  | 
 |  | Cn1cnc2c(F)c(Nc3ccc(Br)cc3Cl)c(C(=O)NOCCO)cc21 [Selumetinib] | 75 | 75 | 75 | 75 | 75 | 75 mg twice daily (BID) | 75 | 4544 (45.42) ng•h/mL
